Experimental data taken from patent EP4806900A2, “RAS INHIBITORS” (Revolution Medicines, Inc., priority 2019, dated 2021).
“And” between values parts separate entries of the source, which are not always exact repeats. Equal entries are not always repeated.

test system: NCI-H358 (K-Ras G12C); test: CellTiter-Glo cell viability assay, NCI-H358; format: cell-based, human; conditions: Homo sapiens, NCI-H358, Table 5; read-out: H358 Cell Viability assay data (K-Ras G12C, IC50)
Procedure, shortened: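 Compounds dispensed directly onto plated NCI-H358 cells; plates equilibrated to room temperature on day 5 before luminescence read-out. Signal normalized to mean DMSO control (%) and fitted by four-parameter logistic.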

Question: `C=CC(=O)N1CC[C@H](C(=O)N(C)[C@H](C(=O)N[C@H]2Cc3cccc(c3)-c3ccc4c(c3)c(c(-c3cccnc3[C@H](C)OC)n4CC)CC(C)(C)COC(=O)[C@@H]3CCCN(N3)C2=O)C(C)C)C1` [Compound A114] was tested. Which IC50 did it give?
Answer: 0.1 to 1 µM

same assay, conditions: Homo sapiens, NCI-H358, read-out: H358 Cell Viability assay data (K-Ras G12C, IC50, uM), Table 5

Question: For `C=CC(=O)N1CC[C@H](C(=O)N(C)[C@H](C(=O)N[C@H]2Cc3cc(O)cc(c3)-c3ccc4c(c3)c(c(-c3cnccc3[C@H](C)OC)n4CC)CC(C)(C)COC(=O)[C@@H]3CCCN(N3)C2=O)C(C)C)C1` [Compound A112], which IC50 is on record?
Answer: < 0.01 µM

Question: `CCn1c(-c2cnccc2COC)c2c3cc(ccc31)-c1ccnc(c1)C[C@H](NC(=O)[C@H](C(C)C)N(C)C(=O)[C@H]1CCN(C(=O)C#CCN(C)C)C1)C(=O)N1CCC[C@H](N1)C(=O)OCC(C)(C)C2` [Compound A130] was tested. Which IC50 did it give?
Answer: 0.01 to 0.1 µM

Question: With `C=CS(=O)(=O)N1CC[C@H](C(=O)N(C)[C@H](C(=O)N[C@H]2Cc3cc(O)cc(c3)-c3ccc4c(c3)c(c(-c3cccnc3[C@H](C)OC)n4CC)CC(C)(C)COC(=O)[C@@H]3CCCN(N3)C2=O)C(C)C)C1` [Compound A132] as the compound, how does the IC50 read?
Answer: < 0.01 µM

Question: With `CCn1c(-c2cccnc2COC)c2c3cc(ccc31)-c1cc(O)cc(c1)C[C@H](NC(=O)[C@H](C(C)C)N(C)C(=O)[C@H]1CCN(C(=O)C#CCOC)C1)C(=O)N1CCC[C@H](N1)C(=O)OCC(C)(C)C2` [Compound A135] as the compound, how does the IC50 read?
Answer: < 0.01 µM

Question: `C=CC(=O)N1CC[C@H](C(=O)N(C)[C@H](C(=O)N[C@H]2Cc3cc(O)cc(c3)-c3ccc4c(c3)c(c(-c3cc(CN(C)C)cnc3COC)n4CC)CC(C)(C)COC(=O)[C@@H]3CCCN(N3)C2=O)C(C)C)C1` [Compound A149] was tested. Which IC50 did it give?
Answer: 0.01 to 0.1 µM

Question: Which IC50 does the source give for `CCn1c(-c2cccnc2COC)c2c3cc(ccc31)-c1cc(C)cc(c1)C[C@H](NC(=O)[C@H](C(C)C)N(C)C(=O)[C@H]1CCN(C(=O)C#CCN(C)C)C1)C(=O)N1CCC[C@H](N1)C(=O)OCC(C)(C)C2` [Compound A157] here?
Answer: < 0.01 µM

Question: With `C=CC(=O)N1CC[C@H](C(=O)N(C)[C@H](C(=O)N[C@H]2Cc3cc(O)cc(c3)-c3ccc4c(c3)c(c(-c3cccnc3)n4C3CC3)CC(C)(C)COC(=O)[C@@H]3CCCN(N3)C2=O)C(C)C)C1` [Compound A160] as the compound, how does the IC50 read?
Answer: 0.1 to 1 µM

Question: How did the IC50 turn out when `CCn1c(-c2cccnc2COC)c2c3cc(ccc31)-c1cc(O)cc(c1)C[C@H](NC(=O)[C@H](C(C)C)N(C)C(=O)[C@H]1CCN(C(=O)/C=C\CN(C)C)C1)C(=O)N1CCC[C@H](N1)C(=O)OCC(C)(C)C2` [Compound A161] was run?
Answer: > 1 µM

same assay, conditions: Table 5; read-out: H358 Cell Viability assay data (K-Ras G12C, IC50)

Question: Which IC50 does the source give for `CCn1c(-c2ccccc2COC)c2c3cc(ccc31)-c1cc(O)cc(c1)C[C@H](NC(=O)[C@H](C(C)C)N(C)C(=O)[C@H]1CCN(C(=O)/C=C/CN(C)C)C1)C(=O)N1CCC[C@H](N1)C(=O)OCC(C)(C)C2` [Compound A79] here?
Answer: 0.01 to 0.1 µM

Question: `C=CC(=O)N1CC[C@H](C(=O)N(C)[C@H](C(=O)N[C@H]2Cc3cc(O)cc(c3)-c3ccc4c(c3)c(c(-c3c(CCOC)cccc3OC)n4CC)CC(C)(C)COC(=O)[C@@H]3CCCN(N3)C2=O)C(C)C)C1` [Compound A80] was tested. Which IC50 did it give?
Answer: 0.1 to 1 µM

Question: Which IC50 does the source give for `C=CC(=O)N1CC[C@H](C(=O)N(C)[C@H](C(=O)N[C@H]2Cc3cc(O)cc(c3)-c3ccc4c(c3)c(c(-c3cc(F)cnc3COC)n4CC)CC(C)(C)COC(=O)[C@@H]3CCCN(N3)C2=O)C(C)C)C1` [Compound A82] here?
Answer: 0.01 to 0.1 µM

Question: Which IC50 does the source give for `C=CC(=O)N1CC[C@H](C(=O)N(C)[C@H](C(=O)N[C@H]2Cc3cc(O)cc(c3)-c3ccc4c(c3)c(c(-c3cncc(COC)c3)n4CC)CC(C)(C)COC(=O)[C@@H]3CCCN(N3)C2=O)C(C)C)C1` [Compound A83] here?
Answer: 0.01 to 0.1 µM

Question: How did the IC50 turn out when `C=CC(=O)N1CC[C@H](C(=O)N(C)[C@H](C(=O)N[C@H]2Cc3cc(O)cc(c3)-c3ccc4c(c3)c(c(-c3ncccc3COC)n4CC)CC(C)(C)COC(=O)[C@@H]3CCCN(N3)C2=O)C(C)C)C1` [Compound A84] was run?
Answer: 0.1 to 1 µM

Question: `C=CC(=O)N1CC[C@H](C(=O)N(C)[C@H](C(=O)N[C@H]2Cc3cc(O)cc(c3)-c3ccc4c(c3)c(c(-c3nccnc3COC)n4CC)CC(C)(C)COC(=O)[C@@H]3CCCN(N3)C2=O)C(C)C)C1` [Compound A85] was tested. Which IC50 did it give?
Answer: 0.1 to 1 µM

Question: Which IC50 does the source give for `C=CC(=O)N1CC[C@H](C(=O)N(C)[C@H](C(=O)N[C@H]2Cc3cc(O)cc(c3)-c3ccc4c(c3)c(c(-c3ccncc3)n4C(C)(C)C#N)CC(C)(C)COC(=O)[C@@H]3CCCN(N3)C2=O)C(C)C)C1` [Compound A86] here?
Answer: 0.01 to 0.1 µM

Question: For `CCn1c(-c2cnccc2COC)c2c3cc(ccc31)-c1cc(O)cc(c1)C[C@H](NC(=O)[C@H](C(C)C)N(C)C(=O)[C@H]1CCN(C(=O)/C=C/CN(C)C)C1)C(=O)N1CCC[C@H](N1)C(=O)OCC(C)(C)C2` [Compound A87], which IC50 is on record?
Answer: 0.01 to 0.1 µM

Question: For `CCn1c(-c2cnccc2COC)c2c3cc(ccc31)-c1cc(O)cc(c1)C[C@H](NC(=O)[C@H](C(C)C)N(C)C(=O)[C@H]1CCN(C(=O)C#CCN(C)C)C1)C(=O)N1CCC[C@H](N1)C(=O)OCC(C)(C)C2` [Compound A88], which IC50 is on record?
Answer: < 0.01 µM

Question: With `C=CC(=O)N1CC[C@H](C(=O)N(C)[C@H](C(=O)N[C@H]2Cc3cc(O)cc(c3)-c3ccc4c(c3)c(c(-c3ccc(N5CCN(C)CC5)nc3)n4CC)CC(C)(C)COC(=O)[C@@H]3CCCN(N3)C2=O)C(C)C)C1` [Compound A89, (2S)-N-[(8S,14S)-22-ethyl-4-hydroxy-18,18-dimethyl-21-[6-(4-methylpiperazin-1-yl)pyridin-3-yl]-9,15-dioxo-16-oxa-10,22,28-triazapentacyclo[18.5.2.1^2,^6.1^10,^14.0^23,^27]nonacosa-1(26),2,4,6(29),20,23(27),24-heptaen-8-yl]-3-methyl-2-{N-methyl-1-[(3S)-1-(prop-2-enoyl)pyrrolidin-3-yl]formamido}butanamide] as the compound, how does the IC50 read?
Answer: 0.01 to 0.1 µM

Question: How did the IC50 turn out when `CCn1c(-c2ccccc2CN(C)C)c2c3cc(ccc31)-c1cc(O)cc(c1)C[C@H](NC(=O)[C@H](C(C)C)N(C)C(=O)c1nc(NC(=O)/C=C/CN(C)C)cs1)C(=O)N1CCC[C@H](N1)C(=O)OCC(C)(C)C2` [Compound A90] was run?
Answer: > 1 µM

Question: How did the IC50 turn out when `C=CC(=O)N1CC[C@H](C(=O)N(C)[C@H](C(=O)N[C@H]2Cc3cc(O)cc(c3)-c3ccc4c(c3)c(c(-c3cnccc3COC)n4CC)CC(C)(C)COC(=O)[C@@H]3CCCN(N3)C2=O)C(C)C)C1` [Compound A91] was run?
Answer: < 0.01 µM

Question: `C=CC(=O)N1CC[C@H](C(=O)N(C)[C@H](C(=O)N[C@H]2Cc3cc(O)cc(c3)-c3ccc4c(c3)c(c(-c3cccnc3CN(C)C)n4CC)CC(C)(C)COC(=O)[C@@H]3CCCN(N3)C2=O)C(C)C)C1` [Compound A92] was tested. Which IC50 did it give?
Answer: 0.1 to 1 µM

Question: Which IC50 does the source give for `C=CC(=O)N1CC[C@H](C(=O)N(C)[C@H](C(=O)N[C@H]2Cc3cc(O)cc(c3)-c3ccc4c(c3)c(c(-c3cccnc3COC)n4CC#N)CC(C)(C)COC(=O)[C@@H]3CCCN(N3)C2=O)C(C)C)C1` [Compound A93] here?
Answer: 0.01 to 0.1 µM

Question: Which IC50 does the source give for `C=CC(=O)N1CC[C@H](C(=O)N(C)[C@H](C(=O)N[C@H]2Cc3nc(cs3)-c3ccc4c(c3)c(c(-c3cccnc3COC)n4CC)CC(C)(C)COC(=O)[C@@H]3CCCN(N3)C2=O)C(C)C)C1` [Compound A94] here?
Answer: 0.01 to 0.1 µM

Question: Which IC50 does the source give for `CCn1c(-c2cccnc2COC)c2c3cc(ccc31)-c1cc(O)cc(c1)C[C@H](NC(=O)[C@H](C(C)C)N(C)C(=O)[C@H]1CCN(C(=O)C#CCN3CCOCC3)C1)C(=O)N1CCC[C@H](N1)C(=O)OCC(C)(C)C2` [Compound A95, (2S)-N-[(8S,14S)-22-ethyl-4-hydroxy-21-[2-(methoxymethyl)pyridin-3-yl]-18,18-dimethyl-9,15-dioxo-16-oxa-10,22,28-triazapentacyclo[18.5.2.1^2,^6.1^10,^14.0^23,^27]nonacosa-1(26),2,4,6(29),20,23(27),24-heptaen-8-yl]-3-methyl-2-{N-methyl-1-[(3S)-1-[4-(morpholin-4-yl)but-2-ynoyl]pyrrolidin-3-yl]formamido}butanamide] here?
Answer: 0.01 to 0.1 µM

Question: Which IC50 does the source give for `CCn1c(-c2cccnc2COC)c2c3cc(ccc31)-c1cc(O)cc(c1)C[C@H](NC(=O)[C@H](C(C)C)N(C)C(=O)[C@H]1CCN(C(=O)C#CCN(C)C)C1)C(=O)N1CCC[C@H](N1)C(=O)OCC(C)(C)C2` [Compound A96] here?
Answer: < 0.01 µM

Question: With `CCn1c(-c2cccnc2COC)c2c3cc(ccc31)-c1cc(O)cc(c1)C[C@H](NC(=O)[C@H](C(C)C)N(C)C(=O)C1CN(C(=O)C#CCN(C)C)C1)C(=O)N1CCC[C@H](N1)C(=O)OCC(C)(C)C2` [Compound A97] as the compound, how does the IC50 read?
Answer: 0.01 to 0.1 µM

Question: For `C=CC(=O)N1CC[C@H](C(=O)N(C)[C@H](C(=O)N[C@H]2Cc3cc(O)cc(c3)-c3ccc4c(c3)c(c(-c3ccc(C5CCN(C)CC5)nc3)n4CC)CC(C)(C)COC(=O)[C@@H]3CCCN(N3)C2=O)C(C)C)C1` [Compound A98], which IC50 is on record?
Answer: 0.01 to 0.1 µM

Question: Which IC50 does the source give for `C=CC(=O)N1CC[C@H](C(=O)N(C)[C@H](C(=O)N[C@H]2Cc3cc(O)cc(c3)-c3ccc4c(c3)c(c(-c3cnn(C)c3)n4CC)CC(C)(C)COC(=O)[C@@H]3CCCN(N3)C2=O)C(C)C)C1` [Compound A99] here?
Answer: 0.01 to 0.1 µM

Question: For `C=CC(=O)N1CC[C@H](C(=O)N(C)[C@H](C(=O)N[C@H]2Cc3cc(O)cc(c3)-c3ccc4c(c3)c(c(-c3cn(C)cn3)n4CC)CC(C)(C)COC(=O)[C@@H]3CCCN(N3)C2=O)C(C)C)C1` [Compound A113], which IC50 is on record?
Answer: 0.1 to 1 µM

Question: For `CC#CC(=O)N1CC[C@H](C(=O)N(C)[C@H](C(=O)N[C@H]2Cc3cc(O)cc(c3)-c3ccc4c(c3)c(c(-c3cccnc3[C@H](C)OC)n4CC)CC(C)(C)COC(=O)[C@@H]3CCCN(N3)C2=O)C(C)C)C1` [Compound A145, (2S)-2-{1-[(3S)-1-(but-2-ynoyl)pyrrolidin-3-yl]-N-methylformamido}-N-[(8S,14S,20M)-22-ethyl-4-hydroxy-21-{2-[(1S)-1-methoxyethyl]pyridin-3-yl}-18,18-dimethyl-9,15-dioxo-16-oxa-10,22,28-triazapentacyclo[18.5.2.1^2,^6.1^10,^14.0^23,^27]nonacosa-1(26),2,4,6(29),20,23(27),24-heptaen-8-yl]-3-methylbutanamide], which IC50 is on record?
Answer: < 0.01 µM and 0.01 to 0.1 µM

Question: `CCn1c(-c2cncnc2C(C)C)c2c3cc(ccc31)-c1cc(O)cc(c1)C[C@H](NC(=O)[C@H](C(C)C)N(C)C(=O)[C@H]1CCN(C(=O)C#CCN(C)C)C1)C(=O)N1CCC[C@H](N1)C(=O)OCC(C)(C)C2` [Compound A155] was tested. Which IC50 did it give?
Answer: < 0.01 µM and 0.01 to 0.1 µM
